The target in one experiment is T1, sigma receptors (Rattus norvegicus, UniProt Q9R0C9).
T1 construct: a preparation of rat brain membrane; from tissue; host or cells: rat brain membranes
The experiment can be described thus: In vitro binding to sigma receptors with (+)[^3 H]SKF10.047. The following applies: for IC50: rat brain membrane, (+)[^3 H]SKF10.047; for IC50, haloperidol / IC50, example: ratio to haloperidol, second series, rat brain membranes, [^3 H]SKF10.047.

The next experiment has as its target PCP receptors. The experiment can be described thus: In vitro binding to PCP receptors with [^3 H]TCP. The settings on record: rat brain membrane. The method, then:
The test of binding to phenylcyclidine receptors (PCP receptors), performed in the presence of a ligand specific for PCP receptors, [^3 H]TCP, was used to investigate any undesirable interaction of the compounds of the invention with these receptors.
The principle of this technique is to place in competition the affinity of the test substance and that of a radioactive ligand specific for the receptor being studied.
The technique consists in incubating a preparation of rat brain membrane loaded with the labeled ligand specific for the receptor under study in solutions of varying concentration of the test substance. After filtration, one measures the radioactivity of the solution, which represents the displacement of this labeled ligand by the test substance.

The test system of experiment [1] is cysteamine-induced gastroduodenal ulcers. The experiment is described as follows: Cysteamine-induced gastroduodenal ulcer. Type of experiment: in vivo, male Sprague-Dawley rats. The settings on record: I.P. route, 30 min before ulcerogenic agent, dose inhibiting 50% of ulcers; for ED50: Rattus norvegicus, ip, 18 h. The method, then:
The activity of the compounds of the invention with respect to the gastrointestinal tract was shown in the rat by their ability to inhibit gastroduodenal ulcers induced by the administration of cysteamine. In terms of practical methodology, the study is performed according to the method described by Robert, A., et al., in Digestion, 1974, Vol. 11, pp. 199-214, in groups of male Sprague-Dawley rats with an average weight of 200 g, to which a cysteamine hydrochloride solution is administered by subcutaneous injection in a dose of 400 mg/kg. The test compounds are administered to the animals 1 h or 30 min, respectively, before the ulcerogenic agent, depending on whether the oral or intraperitoneal route is used. Eighteen hours later, the rats are sacrificed by elongation; the stomach and duodenum are removed, rinsed with physiological salt solution, and pinned to a card. The antropyloroduodenal region is examined for ulcers, and the area of the ulcers, expressed in mm^2, is determined by multiplying the two main perpendicular axes of the lesion. Statistical analysis of the results is performed by means of Student's t-test for the ulcerated areas in comparison with a control group. The results obtained after intraperitoneal administration are presented in Table 3 and are expressed as the ED50, which is the effective dose (mg/kg) of compound inhibiting 50% of the cysteamine-induced ulcers. Igmesine is presented by way of comparison.

Structures can show the parent of a compound that is named as a salt.

T1 sequence (Q9R0C9 whole entry): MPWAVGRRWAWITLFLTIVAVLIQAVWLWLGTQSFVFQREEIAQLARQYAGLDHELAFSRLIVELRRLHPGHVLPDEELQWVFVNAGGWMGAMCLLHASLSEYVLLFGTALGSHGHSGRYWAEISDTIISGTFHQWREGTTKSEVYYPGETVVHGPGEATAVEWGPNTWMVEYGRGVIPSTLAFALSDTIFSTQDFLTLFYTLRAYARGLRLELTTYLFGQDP
Description for sigma receptors: Experiments on binding to sigma and PCP receptors are performed with the ligands (+)[^3 H]SKF10.047 and [^3 H]TCP, respectively, by the technique described by Largent, B. L., et al. in J. Pharmacol. Exp. Ther., 1986, Vol. 238, pp. 739-748. The principle of this technique is to place in competition the affinity of the test substance and that of a radioactive ligand specific for the receptor being studied.
The results are expressed as the IC50 of the test substance, which is the concentration at which the tritiated ligand is displaced from 50% of its binding sites in the membrane preparation used.

What is called IC50 is the midpoint of a concentration-inhibition curve. Low readings indicate greater potency, high ones weaker potency. By ED50 is commonly meant the dose at which the effect has come halfway, by size or by number of responders. Turning to `C(=C\c1ccccc1)/CC1CCCN1CC1CC1` (racemic) [Example 1.1, (±)-(E)-2-cinnamyl-1-cyclopropylmethylpyrrolidine], the results for the IC50 at sigma receptors and at PCP receptors were 0.0343 µM and more than 10 µM, respectively. In addition, in experiment [1], the 50% effect level (ED50) was put at a dose of 0.185 mg/kg.

In experiment [1], `C(=C\c1ccccc1)/CC1CCCN1CC1CC1` (single isomer, unassigned; (+)) [Example 1.2, (+)-(E)-2-cinnamyl-1-cyclopropylmethylpyrrolidine] yielded an ED50 of less than 0.1 mg/kg.

Take `C(=C\c1ccccc1)/CC1CCCCN1CC1CC1` (single isomer, unassigned; (+)) [Example 2A.2, (+)-(E)-2-cinnamyl-1-(cyclopropylmethyl)piperidine]: the ED50 in experiment [1] was less than 0.1 mg/kg.

The compound `CCC(C/C=C/c1ccccc1)(c1ccccc1)N(C)CC1CC1` (single isomer, unassigned; (+)) [Igmesine, (+)-N-(cyclopropylmethyl)-1-ethyl-N-methyl-1,4-diphenyl-3-butene-1-ylaminehydrochloride, reference compound] displayed an ED50 in experiment [1] of 5.95 mg/kg.

As to `C(=C\c1ccccc1)/CC1CCCN1CC1CC1` (single isomer, unassigned; (-)) [Example 1.3, (-)-(E)-2-cinnamyl-1-cyclopropylmethylpyrrolidine], on sigma receptors, the “IC50, haloperidol / IC50, example” value was 1.6. Moreover, the “ED50, cysteamine-induced ulcer” value in experiment [1] (1080 min) is given as less than 0.100 mg/kg.

In the case of `C(=C\c1ccccc1)/CC1CCCCN1CC1CC1` (single isomer, unassigned; (-)) [Example 2A.3, (-)-(E)-2-cinnamyl-1-(cyclopropylmethyl)piperidine], on sigma receptors, the “IC50, haloperidol / IC50, example” value is reported as 1.4.

As to `C(=C\c1ccccc1)/CC1CCCN1CC1CCC1` (stereo not drawn) [Example 1.4, (E)-2-cinnamyl-1-cyclobutylmethylpyrrolidine], the “affinity for sigma receptors” value on sigma receptors (in words) is given as “strong affinity for sigma receptors”. Further, the IC50 on sigma receptors was 0.00452 µM; at PCP receptors, more than 10 µM. Further, the 50% effective dose (ED50) in experiment [1] is 0.137 mg/kg.

As for `C(=C\c1ccccc1)/CC1CCCN1CCc1ccccc1` (stereo not drawn) [Example 1.6, (E)-2-cinnamyl-1-phenethylpyrrolidine], the “IC50, haloperidol / IC50, example” value on sigma receptors stood at 1.3.

`C(=C\c1ccccc1)/CC1CCCCN1CC1CC1` (stereo not drawn) [Example 2A.1, (E)-2-cinnamyl-1-cyclopropylmethylpiperidine] came in with an ED50 in experiment [1] of 0.1 mg/kg.

For the compound `C(=C\c1ccccc1)/CC1CCCCN1CC1CCC1` (stereo not drawn) [Example 2A.4, (E) -2-cinnamyl-1-cyclobutylmethylpiperidine], on sigma receptors, the “IC50, haloperidol / IC50, example” value was found to be 2.3.

On to `C(=C\c1ccccc1)/CC1CCCCN1CCc1ccccc1` (stereo not drawn) [Example 2A.5, (E)-2-cinnamyl-1-(phenethyl)piperidine], for which the “IC50, haloperidol / IC50, example” value on sigma receptors was 1.0.

On to `C(=C/c1ccccc1)/CC1CCCCN1CC1CC1` (stereo not drawn) [Example 2A.6, (Z)-2-cinnamyl-1-cyclopropylmethylpiperidine], for which the results for the IC50 on sigma receptors and at PCP receptors were 0.0343 µM and more than 10 µM, respectively. Also, the ED50 in experiment [1] was less than 0.1 mg/kg.

On to `Fc1ccc(/C=C\CC2CCCCN2CC2CC2)cc1` (stereo not drawn) [Example 2B.2, (Z)-2-(p-fluorocinnamyl)-1-cyclopropylmethylpiperidine], for which the “IC50, haloperidol / IC50, example” value at sigma receptors worked out at 1.6.

As to `FC(F)(F)c1ccc(/C=C/CC2CCCCN2CC2CC2)cc1` (stereo not drawn) [Example 2G, (E)-2-(p-trifluoromethylcinnamyl)-1-cyclopropylmethylpiperidine], the “IC50, haloperidol / IC50, example” value on sigma receptors was 0.8.

As to `C(=C/c1ccccc1)/CC1CCCN1CC1CC1` (stereo not drawn) [Example 2K, (Z)-2-cinnamyl-1-cyclopropylmethylpyrrolidine], at sigma receptors, the “IC50, haloperidol / IC50, example” value is reported as 4.3.

For `Fc1ccc(/C=C/CC2CCCN2CC2CC2)cc1` (stereo not drawn) [Example 2L, (E)-2-(p-fluorocinnamyl)-1-cyclopropylmethylpyrrolidine], the “IC50, haloperidol / IC50, example” value on sigma receptors turned out to be 1.1.

These data come from US5849760A, “2-(arylalkenyl)azacycloalkane derivatives as ligands for sigma receptors” (Institut de Recherche Jouveinal, priority 1993, dated 1998).
